Assay results from US12227743B2, “Pharmaceutical composition for treatment of diseases associated with upregulated periostin expression or periostin splice variant switching” (Osaka University, priority 2018, dated 2025).

Experiments:
[1] = test system: human breast cancer cell line BT549; test: ATP assay (CellTiter-Glo, ATP production) in transfected BT549 cells with or without paclitaxel; format: cell-based; details: 72 hours
Description: (§1) Periostin-highly-expressing human breast cancer cell line BT549 was cultured in RPMI 1640 with 10% FBS and 1% penicillin/streptomycin. The BT549 cells are a triple-negative breast cancer cell line, which is negative for estrogen receptor, progesterone receptor, and human epidermal growth factor receptor 2 (HER2).
(§2) The BT549 cells were transfected with the human exon 17-skipping antisense oligonucleotide or the human exon 21-skipping antisense oligonucleotide as described in Example 1. The cells were subsequently seeded in an amount of 5×10^3 cells/well on a 96-well plate. Similarly, the BT549 cells were transfected with the control antisense oligonucleotide and seeded on a 96-well plate as the control group. On the day after seeding, paclitaxel was added at a final concentration of 10 nM to the wells. After 72 hours of culture, cell proliferation (number of viable cells) and ATP-producing capacity (ATP quantification) were evaluated. The number of viable cells was measured using the CellTiter 96 AQueous One Solution Cell Proliferation Assay (trade name, Promega, #G3582) (MTS assay). The amount of ATP was measured using the CellTiter-Glo Luminescent Cell Viability Assay (trade name, Promega, #G7570) (ATP assay). The Tukey-Kramer test was used for intergroup comparison.

[2] = test system: downstream molecules of TGF-β-induced signaling; test: Quantitative PCR of downstream molecules of TGF-β-induced signaling in hRPTEC transfected with antisense oligonucleotide; format: cell-based, human; details: vs TGF-β (+) Control AS, FIG. 15
Description: Human renal proximal tubular epithelial cells (hRPTEC, ATCC No. PCS-400-010) were cultured in a renal epithelial cell basal medium (REBM, Cambrex Bio Science Inc.) with 10% fetal bovine serum (FBS) and 1% penicillin/streptomycin. The cells were transfected with the human exon 17-skipping antisense oligonucleotide (Pn exon 17 AS) or the control antisense oligonucleotide (Control AS) as described in Example 1. At 24 hours after transfection, the medium was replaced by a serum-free medium. At 24 hours thereafter, human TGF-β1 (PeproTech) was added to the medium, and culture was continued for additional 24 hours. After cell culture, total RNA was extracted from the cells and subjected to cDNA synthesis (see Reference Example 1). The resulting cDNA was subjected to quantitative PCR using the primers shown below to measure the expression level of the splice variant Pn1 (containing exons 17 and 21, see FIG. 1) (n=3 per group) and the mRNA expression levels of the downstream molecules of TGF-β-induced signaling (αSMA, Snail 1, TNFα, CTGF, vimentin) (n=4 per group). Statistical analysis was performed by analysis of variance and Tukey-Kramer adjustment using the JMP statistical software package.

[3] = test system: human breast cancer cell line BT549; test: MTS assay (number of viable cells) in transfected BT549 cells with or without paclitaxel; format: cell-based; details: 72 hours
Description: as §1, §2

[4] = test system: Luciferase-expressing mouse breast cancer (4T1-Luc) cells; test: Pulmonary metastasis (lung luciferase activity) in nude mice after tail vein injection of transfected 4T1-Luc cells; format: in vivo; details: 5×10^5 transfected 4T1-Luc cells via tail vein, 5 days after injection, vs control antisense, FIG. 16
Description: Luciferase-expressing mouse breast cancer (4T1-Luc) cells were cultured in DMEM with 10% FBS and 1% penicillin/streptomycin. A morpholino antisense oligonucleotide designed to induce skipping of exon 17 of a mouse periostin gene was purchased from Funakoshi Co., Ltd. The nucleotide sequence of the antisense oligonucleotide is as follows.
The mouse exon 17-skipping antisense oligonucleotide targets the region of positions 21118 to 21142 of the mouse periostin gene represented by SEQ ID NO: 2.
The 4T1-Luc cells were transfected with the mouse exon 17-skipping antisense oligonucleotide or the control antisense oligonucleotide (SEQ ID NO: 6) as described in Example 1. After 2 days of culture, the cells were detached, and cell suspension was prepared. The cell suspension (containing 5×10^5 4T1-Luc cells per mouse) was injected via the tail vein to nude mice (BALB/c-nu, female, 8 to 10 weeks old) (n=3 per group). At 5 days after injection, the lung was excised from each mouse under anesthesia and homogenized. The homogenate was subjected to the measurement of luciferase activity using the Dual-Luciferase Reporter Assay System (Promega, #E1910). The Mann Whitney test (MWU) was used for comparison between the two groups.

[5] = BT549, no paclitaxel, vs control antisense transfected cells, FIG. 18A
[6] = BT549, paclitaxel 10 nM, vs control antisense transfected cells, FIG. 18B
[7] = BT549, paclitaxel 10 nM, vs control antisense transfected cells, FIG. 17B

Row | Substance | ATP production [1, 5] | ATP production [1, 6] | CTGF mRNA expression, TGF-β induction [2] | Snail 1 mRNA expression, TGF-β induction [2] | TNFα mRNA expression, TGF-β induction [2] | Vimentin mRNA expression, TGF-β induction [2] | αSMA mRNA expression, TGF-β induction [2] | cell proliferation (number of viable cells, MTS) [3, 7] | luciferase activity in lung homogenate (pulmonary metastasis) [4] | ATP production ([1]; BT549, no paclitaxel, vs exon 17-skipping antisense transfected cells, FIG. 18A) | ATP production ([1]; BT549, paclitaxel 10 nM, vs exon 17-skipping antisense transfected cells, FIG. 18B) | cell proliferation (number of viable cells, MTS) ([3]; BT549, no paclitaxel, vs exon 17-skipping and control antisense transfected cells, FIG. 17A)
1 | exon 17-skipping antisense oligonucleotide: Morpholino antisense oligonucleotide 5′-CCATGTATAACATTGATTTTTACCTTCAGT-3′ designed to induce skipping of exon 17 of a human periostin gene (all phosphorodiamidate morpholino (PMO)) | significant reduction | significant reduction | significantly suppressed | significantly suppressed | significantly suppressed | significantly suppressed | significantly suppressed | significant reduction |  |  |  | 
2 | mouse exon 17-skipping antisense oligonucleotide: Morpholino antisense oligonucleotide 5′-TGCTGAAAACATAGAAAGTGGAGCA-3′ designed to induce skipping of exon 17 of a mouse periostin gene (all phosphorodiamidate morpholino (PMO)) |  |  |  |  |  |  |  |  | very low |  |  | 
3 | exon 21-skipping antisense oligonucleotide: Morpholino antisense oligonucleotide 5′-TTGTTGTCCTTTTACTAACCTCCCT-3′ designed to induce skipping of exon 21 of a human periostin gene (all phosphorodiamidate morpholino (PMO)) | significant reduction | significant reduction |  |  |  |  |  | significant reduction |  | significant reduction | significant reduction | significant reduction
